Source: patent publication US4691046A, “Butanedioic acid mono [(2-dimethylamino] ethyl ester)succinate” (Institut Organicheskoi Khimii Ordena Lenina I Ordena …, priority 1986, dated 1987)

Experiments:
[1] = Survival of mice on acute cooling; assay type: in vivo; conditions: i.p. 1 hour before, 80 mg/kg (invention), 64 mg/kg (ester), 17 mg/kg (sodium succinate)
Procedure: The activity of the compound according to the present invention was studied in experiments on animals. The effectivemess of the compound according to the present invention was studied for resistance against an acute cold effect in comparison with conventional preparations such as butanedioic acid mono[(2-dimethylamino)ethyl ester] and sodium succinate.
The experiments were carried out on male mice (tetrahybdrids) with a body mass of 18-20 g which were placed into a cold chamber at a temperature of -15t to -17° C. in separate plastic cages slightly limiting their activity. […] The preparations were administered intraperiotoneally 1 hour before the cold effect the control animals were administered with a physiological solution.

Succinatedehydrogenase = experiment: Activity of succinatedehydrogenase in myocardium upon low-temperature treatment; assay type: in vivo, mice; conditions: 2.5 hours at -14° C.; 80 mg/kg (invention) or 64 mg/kg (ester); control 72.3 ± 1.6
Procedure: (§2) The preparations were administered one hour before the standard low-temperature treatment (-14° C.) in doses of 80 mg/kg of the compound according to the present invention and 64 mg/kg of the prior art compound-butanedioic acid mono[(2-dimethylamino)-ethyl ester].

Isocitratedehydrogenase = experiment: Activity of isocitratedehydrogenase in myocardium upon low-temperature treatment; assay type: in vivo, mice; conditions: 2.5 hours at -14° C.; 80 mg/kg (invention) or 64 mg/kg (ester); control 49.5 ± 1.2
Procedure: as §2

Glutamatedehydrogenase = experiment: Activity of glutamatedehydrogenase in myocardium upon low-temperature treatment; assay type: in vivo, mice; conditions: 2.5 hours at -14° C.; 80 mg/kg (invention) or 64 mg/kg (ester); control 68.8 ± 1.5
Procedure: as §2

Pyruvatedehydrogenase = experiment: Activity of pyruvatedehydrogenase in myocardium upon low-temperature treatment; assay type: in vivo, mice; conditions: 2.5 hours at -14° C.; 80 mg/kg (invention) or 64 mg/kg (ester); control 56.6 ± 1.1
Procedure: as §2

NADH2 --dehydrogenase = experiment: Activity of NADH2-dehydrogenase in myocardium upon low-temperature treatment; assay type: in vivo, mice; conditions: 2.5 hours at -14° C.; 80 mg/kg (invention) or 64 mg/kg (ester); control 69.8 ± 1.5
Procedure: as §2

[2] = tested on: NAD-Ph--H2 --dehydrogenase; experiment: Activity of NAD-Ph-H2-dehydrogenase in myocardium upon low-temperature treatment; assay type: in vivo, mice; conditions: 2.5 hours at -14° C.; 80 mg/kg (invention) or 64 mg/kg (ester); control 72.1 ± 1.4
Procedure: as §2

[3] = tested on: Glucose-6-phosphatedehydrogenase; experiment: Activity of glucose-6-phosphatedehydrogenase in myocardium upon low-temperature treatment; assay type: in vivo, mice; conditions: 2.5 hours at -14° C.; 80 mg/kg (invention) or 64 mg/kg (ester); control 57.3 ± 1.3
Procedure: as §2

[4] = Maximum duration of mice lifespan upon testing cold treatment (Le Blanc adaptation procedure); assay type: in vivo; conditions: with preliminary adaptation; 80 mg/kg (invention) or 64 mg/kg (ester); adaptation alone 6.0 ± 0.3
Procedure: (§1) To elucidate the effect of the compound according to the present invention on the adaptation phenomenon, experiments on male mice with a body mass of 18-20 g were carried out in conformity with the Le Blanc procedure according to which the mice were placed into a cold chamber (at -17° C.) for 10 minutes ever hour over the period of 9-10 hours. After one day the maximum lifespan of the mice at -17° C. was assessed along with the content of glucose in blood and of glycogen in organs upon a predetermined cold treatment (2.5 hours a -14° C.). The compound according to the present invention and butanedioic acid mono[(2-dimethylamino)-ethyl ester] (in doses of 80 and 64 mg/kg respectively) were introduced immediately after a series of short-time cold effects. In a number of experiments the compound according to the present invention was administered 1 hour prior to the testing (2.5 h) cold effect.

[5] = Blood glucose and organ glycogen upon predetermined (2.5 h) cold treatment (adaptation experiment); assay type: in vivo, mice; conditions: adaptation + preparation immediately after adaptation, 80 mg/kg (invention) or 64 mg/kg (ester), 2.5 h at -14° C.
Procedure: as §1

[6] = Stresso-protective activity, motion stress in slowly rotating drum for 48 hours; assay type: in vivo, rats; conditions: 48 h motion stress
Procedure: In evaluation of the stresso-protective activity of the compound according to the present invention as a model use was made of a procedure of depriving rats of sleep, meals and water in a slowly rotating drum (at the speed of 0.2 km/h).
The experiments were carried out on 42 nondescript male rats. In parallel experiments the antistress activity of butanedioic acid mono[(2-dimethylamino)ethyl ester] was studied; as the reference prepartion use was made of the prior art tranquilizer--diazepam which was used in the experiments for this very indication.
4 groups of animals were tested in parallel. Groups I and II were placed for 48 hours into a slowly rotating drum, groups III and IV were under normal conditions and were deprived only of meals and water. The compound according to the present invention and butanedioic acid mono[(2-dimethylamino)ethyl ester] were administered intraperitoneally in the dose of 10 mg/kg four times (2 times a day) in the volume of 2.5 ml/kg under the conditions of motion stress (Group I of the animals) and under normal conditions (Group III of animals). The control animals--Group II (active control) and Group IV (passive control) were given a physiological solution. The efficiency of the compound according to the present invention, of butanedioic acid mono[(2-dimethylamino)ethyl ester] and of diazepam was estimated on the basis of a set of characteristics showing the functional activity of the central nervous system, physical fitness and development of basic symptoms of the stress-syndrome.
The residence of control rats in a slowly-rotating drum over 48 hours results in a noticeable deterioration of all the studied characteristics, especially those of higher nervous activity (learning) and development of stress-syndrome. The state of control animals was characterized by lowering of the overall behavioural activity as determined by the "open-field" test (37±15%) with reference to the passive control level, by a reduction in the speed of development of a conventional avoiding response in an aqueous labyrinth (58±15%), by an increase in the number of mistakes during the teaching time (175±25%), lowering of the ultimate physical endurance as determined by the swimming-with-load test (the load is equal to 10% by mass of the body (70±17%), adrenal hypertrophy (146±16%), thymus atrophy (49±9%) and formation of ulcers on the stomach mucous membrane (5.25±1.0%).

[7] = Biochemical substrates in mice upon preset (2.5 hours) low-temperature treatment; conditions: 2.5 hours at -14° C., 1 hour after 80 mg/kg (invention) or 64 mg/kg (ester)
Procedure: as §2

CN(C)CCOC(=O)CCC(=O)O [Butanedioic acid mono[(2-dimethylamino)ethyl ester]] [reference compound]
Survival, %, 1 hour ([1]; 1 hour of cold at -15 to -17° C.): 100%
Survival, %, 2 hours ([1]; 2 hours of cold at -15 to -17° C.): 90%
Survival, %, 3 hours ([1]; 3 hours of cold at -15 to -17° C.): 70%
Survival, %, 4 hours ([1]; 4 hours of cold at -15 to -17° C.): 50%
Survival, %, 5 hours ([1]; 5 hours of cold at -15 to -17° C.): 20%
Survival, %, 6 hours ([1]; 6 hours of cold at -15 to -17° C.): 10%
Activity of succinatedehydrogenase in myocardium (Succinatedehydrogenase): 75.6 ± 2.4 relative units
Activity of isocitratedehydrogenase in myocardium (Isocitratedehydrogenase): 58.2 ± 1.4 relative units
Activity of glutamatedehydrogenase in myocardium (Glutamatedehydrogenase): 72.4 ± 0.6 relative units
Activity of pyruvatedehydrogenase in myocardium (Pyruvatedehydrogenase): 62.6 ± 3.5 relative units
Activity of NADH2-dehydrogenase in myocardium (NADH2 --dehydrogenase): 70.8 ± 2.7 relative units
Activity of NAD-Ph-H2-dehydrogenase in myocardium [2]: 76.4 ± 2.7 relative units
Activity of glucose-6-phosphatedehydrogenase in myocardium [3]: 60.2 ± 1.4 relative units
Lifespan in hours (at -17° C.), preliminary adaptation + preparation [4]: 6.2 ± 0.4 h
Glycogen, heart ([5]; control 1.7 ± 0.2): 2.4 ± 0.2 mg/g
Glycogen, liver ([5]; control 6.7 ± 0.4): 10.2 ± 2.7 mg/g
Blood glucose ([5]; control 37 ± 6): 75 ± 4 mg. %
stresso-protective activity compared with the compound of the invention ([6]; in words): far less pronounced
Weight coefficient of thymus ([6]; 10 mg/kg i.p. four times (invention, ester), control 0.95 ± 0.18, 10 mg/kg): 1.08 g/kg of the initial body mass
Weight coefficient of adrenal glands ([6]; 10 mg/kg i.p. four times (invention, ester), control 1.246 ± 0.028, 10 mg/kg): 1.42 g/kg of the initial body mass
Number of attempts till reaching the learning criterion (water labyrinth) ([6]; 10 mg/kg i.p. four times (invention, ester), control 4.75 ± 0.5, 10 mg/kg): 4.10
Number of ulcers on the stomach mucous membrane ([6]; 10 mg/kg i.p. four times (invention, ester), control 5.25 ± 1.0, 10 mg/kg): 4.2
Duration of swimming ([6]; 10 mg/kg i.p. four times (invention, ester), control 244 ± 26, 10 mg/kg): 325 s
Liver glycogen ([7]; control 8.1 ± 0.6, intact 35.2 ± 4.5): 6.7 ± 0.8 mg/kg
Blood glucose ([7]; control 42 ± 4, intact 79 ± 3): 64 ± 2 mg. %
Creatine phosphate ([7]; myocardium, control 1.2 ± 0.08, intact 3.7 ± 0.3): 1.4 ± 0.04 μm/g
